Data on 54 compounds can be found in patent US10709711B2 (G1 Therapeutics, Inc., priority 2013, dated 2020).

In experiment [1] the test system is SupT1 cells (human T-cell lymphoblastic leukemia). Nature of the experiment: Inhibition of cellular proliferation, SupT1 cells (CellTiter-Glo). The experiment is classed as cell-based. The note with it: SUP-T1, 96 h, cell viability after four days, nine point dilution series 10 uM to 1 nM. How it is done: (§1) The SupT1 cells were seeded in Costar (Tewksbury, Mass.) 3093 96 well tissue culture treated white walled/clear bottom plates. A nine point dose response dilution series from 10 uM to 1 nM was performed and cell viability was determined after four days as indicated using the CellTiter-Glo® assay (CTG; Promega, Madison, Wis., United States of America) following the manufacturer's recommendations. Plates were read on a BioTek (Winooski, Vt.) Syngergy2 multi-mode plate reader. The Relative Light Units (RLU) were plotted as a result of variable molar concentration and data was analyzed using Graphpad (LaJolla, Calif.) Prism 5 statistical software to determine the IC50 for each compound.
(§2) The compounds listed in Table 1 were tested for the inhibition of cellular proliferation using SupT1 (human T-cell lymphoblastic leukemia) and Daudi (human B-lymphoblastoid cell from Burkitt's Lymphoma patient).

In experiment [2] the test system is Daudi (human B-lymphoblastoid cell from Burkitt's Lymphoma patient). The experiment is described as follows: Inhibition of cellular proliferation, Daudi cells (CellTiter-Glo). The experiment is classed as cell-based. The note with it: EC50 measured as illustrated in Example 150 (CellTiter-Glo). How it is done:
as §1, §2
A general note: Cellular ATP, detected with luciferase, serves as a proxy for viable cell number.

For `O=C1NCC2(CCCC2)n2c1cc1cnc(Nc3ccc(C(=O)N4CCN(CC5CC5)CC4)cn3)nc12` [OOO], the EC50 in experiment [1] came to 104 nM; in experiment [2], 668 nM.

Turning to `CC(C)[C@H]1CNC(=O)c2cc3cnc(Nc4ccc(N5CCNCC5)cn4)nc3n21` [UUU], the EC50 is 311 nM in experiment [1] and 1420 nM in experiment [2].

As for `CCN(CC)C1CCN(c2ccc(Nc3ncc4cc5n(c4n3)C3(CCCCC3)CNC5=O)nc2)CC1` [CC], the values for the concentration for a half-maximal effect (EC50) in experiment [1] and in experiment [2] were 17 nM and 111 nM, respectively. The corresponding values for `CC(C)N1CCN(c2ccc(Nc3ncc4cc5n(c4n3)C3(CCCCC3)CNC5=O)nc2)C[C@H]1C` [L] are 153 nM and 1260 nM. The matching figures for `O=C1NCC2(CCCCC2)n2c1cc1cnc(Nc3ccc(C(=O)N4CCN(C5CCC5)CC4)cn3)nc12` [LL]: 84 nM and 501 nM.

Consider `CN(C)C1CCN(c2ccc(Nc3ncc4cc5n(c4n3)C3(CCCCC3)CNC5=O)nc2)CC1` [O], for which the EC50 was determined as 44 nM in experiment [1] and 123 nM in experiment [2]. The corresponding values for `CC1CCN(C2CCN(c3ccc(Nc4ncc5cc6n(c5n4)C4(CCCCC4)CNC6=O)nc3)CC2)C1` (stereo not shown) [K] are 134 nM and 167 nM. Regarding `CN1CCN(C(=O)c2ccc(Nc3ncc4cc5n(c4n3)C3(CCCC3)CNC5=O)nc2)CC1` [BBB], the EC50 in experiment [1] amounted to 41 nM; in experiment [2] it was 758 nM. The matching figures for `CC(C)N1CCN(c2ccc(Nc3ncc4cc5n(c4n3)C3(CCCCC3)CNC5=O)nc2)C[C@@H]1C` [AA]: 58 nM and 233 nM. For the compound `CCC(C)CN1[C@H](C)CN(c2ccc(Nc3ncc4cc5n(c4n3)C3(CCCC3)CNC5=O)nc2)C[C@@H]1C` (stereo partly shown) [JJJ], the EC50 in experiment [1] stood at 143 nM; in experiment [2], 448 nM. The matching figures for `CC(C)(C)CCN1CCN(c2ccc(Nc3ncc4cc5n(c4n3)C3(CCCC3)CNC5=O)nc2)CC1(C)C` [CCC]: 133 nM and 1860 nM. The matching figures for `CN1CCN(c2ccc(Nc3ncc4cc5n(c4n3)C3(CCCC3)CNC5=O)nc2)CC1` [ZZ]: 272 nM and 584 nM. For the compound `CCN(CC)C1CCN(c2ccc(Nc3ncc4cc5n(c4n3)C3(CCCC3)CNC5=O)nc2)C1` (stereo not shown) [UU], the EC50 in experiment [1] stood at 228 nM; in experiment [2], 3160 nM. The corresponding values for `CC(C)C[C@@H]1CNC(=O)c2cc3cnc(Nc4ccc(N5CCN(C)CC5)cn4)nc3n21` [XXX] are 270 nM and 1170 nM.

`O=C1NCC2(CCCCC2)n2c1cc1cnc(Nc3ccc(C(=O)N4CCNCC4)cn3)nc12` [Y]: the half-maximal effective concentration (EC50) in experiment [1] came out at 85 nM; in experiment [2], 548 nM. The matching figures for `C[C@@H](O)CN1CCN(c2ccc(Nc3ncc4cc5n(c4n3)C3(CCCCC3)CNC5=O)nc2)CC1` [S]: 110 nM and 634 nM. The matching figures for `O=C1NCC2(CCCCC2)n2c1cc1cnc(Nc3ccc(N4CCC(N5CCC(C(F)(F)F)CC5)CC4)cn3)nc12` [X]: 36 nM and 318 nM. The matching figures for `O=C1NCC2(CCCC2)n2c1cc1cnc(Nc3ccc(N4CCC(N5CCOCC5)CC4)cn3)nc12` [WW]: 77 nM and 1690 nM. For the compound `C[C@@H]1CN(c2ccc(Nc3ncc4cc5n(c4n3)C3(CCCCC3)CNC5=O)nc2)CCN1C[C@@H](C)O` [J], the EC50 in experiment [1] was found to be 47 nM; in experiment [2], 362 nM. The corresponding values for `CN(C)C1CCN(c2ccc(Nc3ncc4cc5n(c4n3)C3(CCCC3)CNC5=O)nn2)CC1` [TTT] are 587 nM and 3300 nM. For the compound `O=C1NCC2(CCCCC2)n2c1cc1cnc(Nc3ccc(N4CCN(CC5CC5)CC4)cn3)nc12` [HH], the EC50 in experiment [1] was 79 nM; in experiment [2], 681 nM.

As to `CC(C)C1CN(c2ccc(Nc3ncc4cc5n(c4n3)C3(CCCCC3)CNC5=O)nc2)CCN1` (stereo not shown) [E], the values for the EC50 in experiment [1] and in experiment [2] were 9.3 nM and 140 nM, respectively. The corresponding values for `C[C@@H]1CN(c2ccc(Nc3ncc4cc5n(c4n3)C3(CCCCC3)CNC5=O)nc2)C[C@H](C)N1C[C@@H](C)O` [MM] are 84 nM and 681 nM.

For `CCN(CC)C1CCN(C2CCN(c3ccc(Nc4ncc5cc6n(c5n4)C4(CCCCC4)CNC6=O)nc3)CC2)C1` (stereo not shown) [RR], the EC50 in experiment [1] is 102 nM; in experiment [2], 158 nM. The matching figures for `C[C@H](O)CN1[C@H](C)CN(c2ccc(Nc3ncc4cc5n(c4n3)C3(CCCCC3)CNC5=O)nc2)C[C@@H]1C` [Z]: 87 nM and 359 nM. The corresponding values for `C[C@H](O)CN1CCN(c2ccc(Nc3ncc4cc5n(c4n3)C3(CCCC3)CNC5=O)nc2)C[C@H]1C` [XX] are 94 nM and 499 nM. Take `C[C@H](O)CN1CCN(c2ccc(Nc3ncc4cc5n(c4n3)C3(CCCCC3)CNC5=O)nc2)CC1` [A]: the EC50 in experiment [1] worked out at 57 nM; in experiment [2], 281 nM. The corresponding values for `C[C@@H]1CN(c2ccc(Nc3ncc4cc5n(c4n3)C3(CCCC3)CNC5=O)nc2)C[C@H](C)N1` [DDD] are 161 nM and 839 nM. The matching figures for `CC(C)N1CCN(Cc2ccc(Nc3ncc4cc5n(c4n3)C3(CCCCC3)CNC5=O)nc2)CC1` [EE]: 89 nM and 259 nM. The corresponding values for `CC1(C)CN(c2ccc(Nc3ncc4cc5n(c4n3)C3(CCCCC3)CNC5=O)nc2)CCN1CC1CC1` [H] are 118 nM and 719 nM. For the compound `C[C@@H](O)CN1CCN(c2ccc(Nc3ncc4cc5n(c4n3)C3(CCCC3)CNC5=O)nc2)C[C@@H]1C` [VV], the EC50 in experiment [1] was 115 nM; in experiment [2] it was 683 nM. On to `CC(C)N1CCN(c2ccc(Nc3ncc4cc5n(c4n3)C3(CCCC3)CNC5=O)nn2)CC1` [RRR], for which the results for the EC50 in experiment [1] and in experiment [2] were 278 nM and 2010 nM, respectively. With `CN1CCN(c2ccc(Nc3ncc4cc5n(c4n3)C3(CCCCC3)CNC5=O)nc2)CC1` [T], the EC50 was 113 nM in experiment [1] and 392 nM in experiment [2]. `O=C1NCC2(CCCC2)n2c1cc1cnc(Nc3ccc(N4CCNCC4)cn3)nc12` [QQQ]: the EC50 stood at 258 nM in experiment [1] and 485 nM in experiment [2].

In the case of `C[C@@H]1CN(c2ccc(Nc3ncc4cc5n(c4n3)C3(CCCCC3)CNC5=O)nc2)CCN1` [V], the EC50 in experiment [1] was 35 nM; in experiment [2], 194 nM.

Turning to `CC1CN(c2ccc(Nc3ncc4cc5n(c4n3)C3(CCCCC3)CNC5=O)nc2)CCN1CC(C)(C)O` (stereo not shown) [W], the results for the EC50 in experiment [1] and in experiment [2] were 57 nM and 731 nM, respectively. In the case of `C[C@H]1CN(c2ccc(Nc3ncc4cc5n(c4n3)C3(CCCCC3)CNC5=O)nc2)CCN1` [KK], the results for the EC50 in experiment [1] and in experiment [2] were 112 nM and 147 nM, respectively. `CCN1[C@H](C)CN(c2ccc(Nc3ncc4cc5n(c4n3)C3(CCCCC3)CNC5=O)nc2)C[C@@H]1C` [FF]: the EC50 in experiment [1] came out at 90 nM; in experiment [2], 380 nM.

Turning to `C[C@H]1CN(c2ccc(Nc3ncc4cc5n(c4n3)C3(CCCCC3)CNC5=O)nc2)CCN1C` [R], the EC50 in experiment [1] was found to be 43 nM; in experiment [2] it was 299 nM. As for `O=C1NCC2(CCCCC2)n2c1cc1cnc(Nc3ccc(N4CCNCC4)cn3)nc12` [Q], the EC50 worked out at 40 nM in experiment [1] and 561 nM in experiment [2]. The matching figures for `CC1(C)CN(c2ccc(Nc3ncc4cc5n(c4n3)C3(CCCCC3)CNC5=O)nc2)CCN1` [I]: 39 nM and 249 nM. The corresponding values for `CCN(CC)C1CCN(c2ccc(Nc3ncc4cc5n(c4n3)C3(CCCCC3)CNC5=O)nc2)C1` (stereo not shown) [QQ] are 68 nM and 851 nM. Take `C[C@@H]1CN(c2ccc(Nc3ncc4cc5n(c4n3)C3(CCCCC3)CNC5=O)nc2)C[C@H](C)N1C` [DD]: the EC50 in experiment [1] was determined as 105 nM; in experiment [2], 546 nM. Take `C[C@@H]1CN(c2ccc(Nc3ncc4cc5n(c4n3)C3(CCCCC3)CNC5=O)nc2)C[C@H](C)N1` [P]: the EC50 is 33 nM in experiment [1] and 140 nM in experiment [2].

Consider `C[C@H](O)CN1CCN(c2ccc(Nc3ncc4cc5n(c4n3)C3(CCCCC3)CNC5=O)nc2)C[C@@H]1C` [C], for which the EC50 in experiment [1] amounted to 74 nM; in experiment [2], 373 nM.

On to `CC(C)N1CCN(c2ccc(Nc3ncc4cc5n(c4n3)C3(CCCCC3)CNC5=O)nc2)CC1C` (stereo not shown) [PP], for which the results for the EC50 in experiment [1] and in experiment [2] were 81 nM and 260 nM, respectively. The corresponding values for `O=C1NCC2(CCCCC2)n2c1cc1cnc(Nc3ccc(N4CCN(C5CCC5)CC4)cn3)nc12` [F] are 107 nM and 692 nM.

`CC(C)C[C@@H]1CNC(=O)c2cc3cnc(Nc4ccc(N5CCNCC5)cn4)nc3n21` [WWW]: the results for the EC50 in experiment [1] and in experiment [2] were 264 nM and 1270 nM, respectively.

For `CC1CN(c2ccc(Nc3ncc4cc5n(c4n3)C3(CCCCC3)CNC5=O)nc2)CCN1CCC(C)(C)C` (stereo not shown) [G], the EC50 in experiment [1] was determined as 156 nM; in experiment [2] it was 1530 nM.

For the compound `O=C1NCC2(CCCCC2)n2c1cc1cnc(Nc3ccc(N4CCC(N5CCOCC5)CC4)cn3)nc12` [U], the results for the EC50 in experiment [1] and in experiment [2] were 48 nM and 363 nM, respectively.

In the case of `CCN(CC)C1CCN(C(=O)c2ccc(Nc3ncc4cc5n(c4n3)C3(CCCCC3)CNC5=O)nc2)C1` (stereo not shown) [JJ], the results for the EC50 in experiment [1] and in experiment [2] were 49 nM and 389 nM, respectively. The corresponding values for `C[C@@H]1CN(c2ccc(Nc3ncc4cc5n(c4n3)C3(CCCCC3)CNC5=O)nc2)C[C@H](C)N1CCC(C)(C)C` [M] are 184 nM and 1460 nM. In the case of `CC(C)N1CCN(c2ccc(Nc3ncc4cc5n(c4n3)C3(CCCCC3)CNC5=O)nc2)CC1` [GG], in experiment [1], the EC50 is 57 nM. Still for that read-out and setting: the same measure for `CC1CN(c2ccc(Nc3ncc4cc5n(c4n3)C3(CCCC3)CNC5=O)nc2)CC(C)N1CCC(C)(C)C` (stereo not shown) [PPP]: 3040 nM.

A word on the EC50: it is the concentration giving half of the maximal effect.
